Values belong to the molecule of their own block, whether it stands above or below them.
Experiments:
[1] = tested on: phosphorylation of a 46/50 kDa-band in membranes of human thrombocytes; assay: cGMP-modulated phosphorylation of a 46/50 kDa band in membranes of human thrombocytes; format: biochemical
Method: (§1) Isolation of cGK I from bovine lung and of cAK II from bovine heart is performed as has been already published (Walter et al., J. Biol. Chem., 255, 3757-3762 (1980)). Protein kinase activity is determined according to the method of Roskoski (Methods Enzymol., 99, 3-6 (1983)). In vitro data on membranes of human thrombocytes are obtained as has already been described by Halbrugge et al. (Eur. J. Biochem., 185, 41-50, (1989)).
(§2) Compounds with extraordinary good membrane permeability are tested in vivo with intact human thrombocytes according to Halbrugge et al. CJ. Biol. Chem., 265, 3088-3093 (1990)).

[2] = target: T1, cGMP-dependent protein kinases (Bos taurus, UniProt P00516); assay: Inhibition/activation of cGMP-dependent protein kinase (cGK); format: biochemical, bovine
T1 construct: Isolation of cGK I from bovine lung; from tissue; host or cells: bovine lung
T1 sequence (P00516 2-671 limits assumed): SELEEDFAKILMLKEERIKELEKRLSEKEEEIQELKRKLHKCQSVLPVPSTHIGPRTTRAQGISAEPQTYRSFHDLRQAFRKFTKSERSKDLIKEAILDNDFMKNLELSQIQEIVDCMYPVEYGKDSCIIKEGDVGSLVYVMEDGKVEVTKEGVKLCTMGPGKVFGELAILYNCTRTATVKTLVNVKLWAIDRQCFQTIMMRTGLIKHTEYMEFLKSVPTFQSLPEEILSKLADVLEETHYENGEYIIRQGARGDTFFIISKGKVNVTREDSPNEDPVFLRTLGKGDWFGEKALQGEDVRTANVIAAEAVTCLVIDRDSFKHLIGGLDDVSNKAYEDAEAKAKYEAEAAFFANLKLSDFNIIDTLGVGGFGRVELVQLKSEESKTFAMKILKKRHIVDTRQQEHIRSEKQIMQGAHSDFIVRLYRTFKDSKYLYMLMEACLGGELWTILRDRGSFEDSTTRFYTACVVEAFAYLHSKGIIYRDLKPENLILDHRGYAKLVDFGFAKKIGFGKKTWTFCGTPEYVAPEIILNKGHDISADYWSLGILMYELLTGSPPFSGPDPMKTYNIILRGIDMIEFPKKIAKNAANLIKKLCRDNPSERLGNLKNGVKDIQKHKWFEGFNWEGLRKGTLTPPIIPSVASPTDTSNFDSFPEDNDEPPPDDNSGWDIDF
Method: as §1

[3] = tested on: cGMP signal transduction pathway; assay: Selective block of the cGMP signal transduction pathway; details: selectivity over cAMP-mediated effects
perfused aorta muscle = assay: SIN 1-stimulated relaxation in perfused aorta muscle
physchem = details: reversed-phase hplc
[4] = tested on: cGMP-dependent phosphorylation of three proteins of the masses 46, 50 and 130 kDa; assay: cGMP-dependent phosphorylation of three proteins of 46, 50 and 130 kDa
[5] = Cell membrane permeability; format: in vitro ADME
cGK I = target: T2, cGK I (Bos taurus, UniProt P00516); assay: Inhibition of isolated cGK I; format: biochemical, bovine
T2 construct: Isolation of cGK I from bovine lung; from tissue; host or cells: bovine lung
T2 sequence (P00516 1-671): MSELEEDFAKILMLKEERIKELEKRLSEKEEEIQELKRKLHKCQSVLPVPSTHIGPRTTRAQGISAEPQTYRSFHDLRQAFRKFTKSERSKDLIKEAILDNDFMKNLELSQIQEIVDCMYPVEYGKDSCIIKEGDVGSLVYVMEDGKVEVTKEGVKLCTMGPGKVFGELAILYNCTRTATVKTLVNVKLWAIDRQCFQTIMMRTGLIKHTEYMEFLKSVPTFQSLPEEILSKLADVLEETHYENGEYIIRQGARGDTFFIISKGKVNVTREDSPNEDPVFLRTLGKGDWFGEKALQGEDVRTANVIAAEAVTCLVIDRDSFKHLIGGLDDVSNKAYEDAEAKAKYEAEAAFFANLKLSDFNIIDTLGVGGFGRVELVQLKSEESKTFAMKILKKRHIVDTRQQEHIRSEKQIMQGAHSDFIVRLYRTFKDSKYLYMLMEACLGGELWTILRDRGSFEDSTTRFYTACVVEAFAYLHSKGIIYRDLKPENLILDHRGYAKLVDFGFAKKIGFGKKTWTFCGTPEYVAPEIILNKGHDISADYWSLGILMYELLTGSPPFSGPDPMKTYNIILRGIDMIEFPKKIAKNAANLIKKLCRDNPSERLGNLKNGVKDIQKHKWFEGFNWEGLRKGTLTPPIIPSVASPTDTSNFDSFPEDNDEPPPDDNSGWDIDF
Method: as §1

[6] = tested on: cGMP-inhibited phosphodieserases (cGI-PDE); assay: Inhibition of cGMP-inhibited phosphodiesterases (cGI-PDE); format: biochemical
[7] = tested on: cAMP-dependent phosphorylation of a 22- and a 240 kDa-band; assay: cAMP-dependent phosphorylation of 22 and 240 kDa bands in membranes of human thrombocytes; format: biochemical
Method: as §1, §2

cAK II = target: T3, cAK II (Bos taurus, UniProt P00515); assay: Activation of cAK II; format: biochemical, bovine; details: at high concentrations
T3 construct: of cAK II from bovine heart; from tissue; host or cells: bovine heart
Method: as §1

[8] = tested on: cGMP-dependent phosphorylation in intact human thrombocytes; assay: cGMP-dependent phosphorylation in intact human thrombocytes (in vivo); format: cell-based
Method: as §2

cAK = details: cited from earlier work
[9] = tested on: cAMP-dependent protein kinases type II (cAK II); details: Botelho et al. 1988; cited from earlier work
[10] = tested on: cAMP-dependent protein kinases type I (cAK I); details: Botelho et al. 1988; cited from earlier work
[11] = target: T1, cGMP-dependent protein kinases; details: background literature (Butt et al. 1990); cited from earlier work
[12] = reversed-phase HPLC; has been reported; cited from earlier work

T3 sequence (P00515 2-401 limits assumed): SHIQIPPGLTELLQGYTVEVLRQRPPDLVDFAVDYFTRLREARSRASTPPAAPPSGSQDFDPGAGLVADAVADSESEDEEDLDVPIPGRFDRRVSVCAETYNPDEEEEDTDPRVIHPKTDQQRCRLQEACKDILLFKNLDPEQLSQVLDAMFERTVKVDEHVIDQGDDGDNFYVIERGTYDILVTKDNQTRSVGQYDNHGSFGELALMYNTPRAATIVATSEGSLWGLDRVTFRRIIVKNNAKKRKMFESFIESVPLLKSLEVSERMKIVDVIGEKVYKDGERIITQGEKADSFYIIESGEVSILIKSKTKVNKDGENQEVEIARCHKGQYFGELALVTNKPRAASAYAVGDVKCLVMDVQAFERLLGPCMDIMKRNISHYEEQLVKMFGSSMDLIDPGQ

Compound: O=c1c2nc(Br)n([C@@H]3O[C@@H]4CO[P@@](O)(=S)O[C@H]4[C@H]3O)c2nc2[nH]c(-c3ccccc3)cn12 [RP -8-Br-PET-cGMPS, Cyclic β-phenyl-1,N^2-etheno-8-bromoguanosine-3',5'-monophosphorothioate, RP -diastereomer]
effectivity at thrombocyte membranes, factor over RP -8-pCPT-cGMPS ([1]; thrombocyte membranes, relative to RP -8-pCPT-cGMPS): 5-10
type of inhibition of cGMP-dependent protein kinases [2]: competitive inhibitor
Ki ([2]; cGMP-dependent protein kinases, competitive inhibitor, read-out: inhibition constant Ki): 30 nM
block of cGMP signal transduction pathway [3]: blocks selectively the cGMP signal transduction pathway without affecting cAMP-mediated effects
SIN 1-stimulated relaxation (perfused aorta muscle): inhibited
chromatographic logP (physchem): 3.22
cGMP-dependent phosphorylation of three proteins [4]: inhibited

cell membrane permeability [5]: excellent cell membrane permeability
type of inhibition of isolated cGK I (cGK I; isolated cGK I): competitive inhibitor
Ki (cGK I; read-out: inhibition constant Ki): 700 nM
chromatographic logP (physchem): 2.82
agonism for cAK II (cAK II): weakly partial agonist
Compound: Nc1nc2c(nc(Sc3ccc(Cl)cc3)n2[C@@H]2O[C@@H]3CO[P@@](O)(=S)O[C@H]3[C@H]2O)c(=O)[nH]1 [RP -8-pCPT-cGMPS, Cyclic 8-(4-chlorophenylthio)-guanosine-3',5'-monophosphorothioate, RP -diastereomer]
phosphorylation of a 46/50 kDa-band ([1]; membranes of human thrombocytes): inhibits the phosphorylation
inhibition of cGI-PDE [6]: poor inhibitor
cAMP-dependent phosphorylation of a 22- and a 240 kDa-band [7]: not disturbed
cGMP-dependent (cGMP-mediated) phosphorylation [8]: inhibits the cGMP-dependent phosphorylation even in intact human thrombocytes

Compound: O=c1c2ncn([C@@H]3O[C@@H]4CO[P@@](O)(=S)O[C@H]4[C@H]3O)c2[nH]c2nc(-c3ccccc3)cn12 [RP -PET-cGMPS, Cyclic β-phenyl-1,N^2-ethenoguanosine-3',5'-monophosphorothioate, RP -diastereomer]
chromatographic logP (physchem): 2.81

Compound: Nc1ncnc2c1ncn2[C@@H]1O[C@@H]2CO[P@@](O)(=S)O[C@H]2[C@H]1O [RP -cAMPS, adenosine-3',5'-monophosphorothioate]
cAMP antagonism (cAK; Botelho et al. 1988): antagonist of cAMP
inhibition of cAK II [9]: competitive inhibitor
inhibition of cAK I [10]: competitive inhibitor

Compound: Nc1nc2c(ncn2[C@@H]2O[C@@H]3CO[P@@](O)(=S)O[C@H]3[C@H]2O)c(=O)[nH]1 [RP -cGMPS, RP -Guanosine-3',5'-monophosphorothioate]
inhibition/agonism of cAK (cAK; background literature): inhibits cAK as well
inhibitory properties / specificity for cGK [11]: lacks the required specificity for cGMP-dependent protein kinase (cGK)

activation of isolated cGK ([2]; isolated cGK): activator
chromatographic logP (physchem): 2.84
Compound: Nc1nc2c(nc(Sc3ccc(Cl)cc3)n2[C@@H]2O[C@@H]3CO[P@](O)(=S)O[C@H]3[C@H]2O)c(=O)[nH]1 [SP -8-pCPT-cGMPS, Cyclic 8-(4-chlorophenylthio)-guanosine-3',5'-monophosphorothioate, SP -diastereomer]
cGMP-dependent (cGMP-mediated) phosphorylation [8]: activator

Compound: O=c1c2ncn([C@@H]3O[C@@H]4CO[P@](O)(=S)O[C@H]4[C@H]3O)c2[nH]c2nc(-c3ccccc3)cn12 [SP -PET-cGMPS, Cyclic β-phenyl-1,N^2-ethenoguanosine-3',5'-monophosphorothioate, SP -diastereomer]
chromatographic logP (physchem): 2.83

chromatographic logP (physchem): 0.77
Compound: Nc1nc2c(ncn2[C@@H]2O[C@@H]3COP(=O)(O)O[C@H]3[C@H]2O)c(=O)[nH]1 [cGMP, guanosine-3',5'-monophosphate, reference compound]
log KW [12]: 0.85

From patent publication US5625056A, “Derivatives of cyclic guanosine-3',5'-monophosphorothioate” (BIOLOG Life Science Institute, priority 1992, dated 1997)
